Experimental data published in patent publication EP4755880A1, “SUBSTITUTED NITROGEN-CONTAINING BICYCLIC COMPOUND AND USE THEREOF” (Sunshine Lake Pharma Co., Ltd., priority 2023, dated 2025).

Columns and labels:
[1] = target: PARP2 (Homo sapiens, UniProt Q9UGN5); experiment: biochemical;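 also: PARP2 enzyme ELISA on histone-coated plates, Strep-HRP detection with chemiluminescence read-out, 10 min compound preincubation with enzyme, inhibition scaled between Max and Min signal controls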
Method: Experimental Objective: To evaluate the inhibitory effect of the compounds of the present invention on the enzyme activities of PARP1 and PARP2 using ELISA.
• 1. histone-coated 384-well plates was prepared: 25 µL of histone solution was added to each well and incubated overnight at 4 °C. • 2. PBST buffer, blocking buffer (PBS buffer with 5% BSA and 0.05% Tween-20 added) and detection buffer (20 mM HEPES pH 7.5 + 100 mM NaCl + 2 mM DTT + 0.002% Tween-20 + 0.1% BSA) were prepared. • 3. The histone-coated 3 84-well plate was washed three times with PBST buffer, blocked at room temperature with 50 µL blocking buffer for 1 hour, and then washed three times with PBST buffer. • 4. Test compounds were prepared as 2000-fold stock solutions in DMSO. 50 nL of the stock solution was mixed with 19.95 µL detection buffer, and 5 µL of the gradient-diluted test compound was transferred to each well. • 5. Enzymatic reaction (PARP1): PARP1 & DNA mix was pre-incubated at 25 °C for 10 minutes. 10 µL of the PARP1 & DNA mix was added to each well and incubated with the test compound at room temperature for 10 minutes. […] Finally, the 384-well plate was washed three times with PBST buffer. Enzymatic reaction (PARP2): PARP2 was pre-incubated at 25 °C for 10 minutes. 10 µL of PARP2 was added to each well and incubated with the test compound at room temperature for 10 minutes. […] Finally, the 384-well plate was washed three times with PBST buffer. • 6. Detection (PARP1): 20 µL of anti-Poly/Mono-ADP Ribose Rabbit mAb was added and incubated at room temperature for 1.5 hours, followed by three washes of the 384-well plate with PBST buffer. Then, 20 µL of diluted anti-rabbit IgG, HRP-linked Antibody (diluted 1:2000 in blocking buffer) was added and incubated at room temperature for 1 hour. After washing the plate three times with PBST buffer, 25 µL of a 1:1 mixture of Femto-ECL Substrate A and Femto-ECL Substrate B was added. Detection (PARP2): 25 µL of Strep-HRP was added and incubated at room temperature for 1 hour, followed by three washes of the 384-well plate with PBS buffer. Then, 25 µL of a 1:1 mixture of Femto-ECL Substrate A and Femto-ECL Substrate B was added. • 7. Chemiluminescence intensity was measured using an Envision multimode microplate reader. • 8. Data Processing
The inhibition rate was calculated in Excel using formula (1). inh% = (Max−Signal)/(Max−Min)*100 [formula]
The IC50 value was obtained by fitting the data in XL-Fit using formula (2). Y = bottom + (top−bottom)/(1+(IC50/X)*HillSlope); [formula] wherein Y is the inhibition percentage and X is the compound concentration.

[2] = test system: DLD-1 BRCA2(-/-) cells; experiment: Inhibition of proliferation of DLD-1 BRCA2(-/-) cells (CTG method); format: cell-based; details: Homo sapiens, DLD-1, 168 h; 7 days incubation, CellTiter-Glo
Method: • 1. Cell Pretreatment: DLD-1 BRCA2(-/-) cells were cultured in growth medium 1640 + 10% FBS (fetal bovine serum) + 1% Penicillin-Streptomycin. Cells in the logarithmic growth phase were digested with trypsin-EDTA, centrifuged, and resuspended. DLD-1 BRCA2(-/-) cells were seeded at 1,000 cells/well in sterile 96-well opaque plates, 75 µl per well. After seeding, the cell culture plates were incubated overnight at 37 °C with 5% CO2 before adhesion, followed by treatment with the test compounds. • 2. DLD-1 BRCA2(-/-) Cell Drug Treatment: The test compound was prepared as a 10 mM stock solution using DMSO. The test compound was then diluted to a 4× working solution using growth medium (starting at 40 µM, with 9 4-fold dilutions). 25 µl of 4× working solution was added to each well to achieve final concentrations of 10000, 2500, 625, 156, 39, 9.7, 2.4, 0.61, and 0.152 nM, respectively. Blank control wells containing the same DMSO concentration were also included, with three replicates for each concentration. After adding the test compound, the cells were incubated at 37 °C with 5% CO2 for 7 days. • 3. After incubation, 100 µl of CellTiter-Glo® Reagent was added to each well, and […] intensity was measured. A curve was fitted using GraphPad software, and the IC50 value for cell proliferation inhibition was calculated.

[3] = test system: MDA-MB-436 cells; experiment: Inhibition of proliferation of MDA-MB-436 cells (CellTiter-Glo); format: cell-based; details: Homo sapiens, MDA-MB-436, 168 h, 7 days incubation
Method: • 1. Cell Pretreatment: MDA-MB-436 cells were cultured in DMEM + 10% FBS + 1% penicillin-dip antibiotics + 1% ITS + 16 µg/ml glutathione. Cells in the logarithmic growth phase were digested with trypsin-EDTA, centrifuged and resuspended, and then seeded at a rate of 500-1000 cells/well in sterile 96-well opaque plates, 90 µl per well. After seeding, the cell culture plates were incubated overnight at 37°C with 5% CO2 before drug treatment. • 2. Drug treatment of MDA-MB-436 cells: The test compound was prepared as a 10 mM stock solution using DMSO. The drug was then diluted to a 10× working solution using growth medium (the compound was started at 100 µM and diluted 4-fold to achieve 9 concentrations). 10 µl of the 10× working solution was added to each well to achieve final drug concentrations of 10000, 2500, 625, 156, 39, 9.7, 2.4, 0.61, and 0.152 nM, respectively. Blank control wells containing the same DMSO concentration were also included, with three replicates for each concentration. After drug addition, the cells were incubated at 37°C with 5% CO2 for 7 days. • 3. After incubation, 100 µl of CellTiter-Glo® Reagent was added to each well, and luminescence was measured. The IC50 value of cell proliferation inhibition was calculated using GraphPad software to fit the curve. Table E: Results of the inhibitory effect of the compound of this invention on the proliferation of MDA-MB-436 cells.

[4] = target: PARP1 (Homo sapiens, UniProt P09874); experiment: Inhibition of PARP1 enzyme activity (ELISA, chemiluminescence); format: biochemical; details: for IC50: ELISA, histone-coated plate, NAD+, 60 min at 25 °C; for Selectivity PARP2/PARP1: ratio of PARP2 IC50 to PARP1 IC50
Sequence of PARP1 (P09874 whole entry): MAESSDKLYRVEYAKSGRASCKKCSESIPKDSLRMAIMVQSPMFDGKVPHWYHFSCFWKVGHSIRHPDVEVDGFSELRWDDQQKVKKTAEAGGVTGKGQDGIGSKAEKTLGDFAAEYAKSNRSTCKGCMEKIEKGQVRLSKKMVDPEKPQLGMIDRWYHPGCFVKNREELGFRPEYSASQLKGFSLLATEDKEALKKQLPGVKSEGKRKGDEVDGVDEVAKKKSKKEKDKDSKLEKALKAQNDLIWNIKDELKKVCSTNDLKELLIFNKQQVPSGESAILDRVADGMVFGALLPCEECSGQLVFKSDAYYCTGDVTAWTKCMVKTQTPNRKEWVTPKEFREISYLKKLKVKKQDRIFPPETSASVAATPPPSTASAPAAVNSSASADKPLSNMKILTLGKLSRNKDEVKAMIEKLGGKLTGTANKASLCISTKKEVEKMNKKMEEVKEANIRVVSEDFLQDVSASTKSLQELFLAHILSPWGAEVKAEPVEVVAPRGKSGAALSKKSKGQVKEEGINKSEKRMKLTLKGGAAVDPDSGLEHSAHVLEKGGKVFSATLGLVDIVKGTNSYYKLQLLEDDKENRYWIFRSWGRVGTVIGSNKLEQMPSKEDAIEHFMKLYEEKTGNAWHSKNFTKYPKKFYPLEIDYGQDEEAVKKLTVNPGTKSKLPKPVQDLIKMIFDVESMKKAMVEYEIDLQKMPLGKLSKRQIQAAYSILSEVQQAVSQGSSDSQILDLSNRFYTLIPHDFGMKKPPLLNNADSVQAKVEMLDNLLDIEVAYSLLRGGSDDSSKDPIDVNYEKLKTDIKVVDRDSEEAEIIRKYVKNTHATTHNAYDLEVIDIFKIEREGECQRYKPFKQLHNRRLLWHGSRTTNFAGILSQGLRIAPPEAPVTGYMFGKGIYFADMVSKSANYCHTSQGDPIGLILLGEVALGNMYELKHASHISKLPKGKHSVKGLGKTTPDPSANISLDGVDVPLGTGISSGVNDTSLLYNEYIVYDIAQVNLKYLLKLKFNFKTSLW

Sequence of PARP2 (Q9UGN5 whole entry): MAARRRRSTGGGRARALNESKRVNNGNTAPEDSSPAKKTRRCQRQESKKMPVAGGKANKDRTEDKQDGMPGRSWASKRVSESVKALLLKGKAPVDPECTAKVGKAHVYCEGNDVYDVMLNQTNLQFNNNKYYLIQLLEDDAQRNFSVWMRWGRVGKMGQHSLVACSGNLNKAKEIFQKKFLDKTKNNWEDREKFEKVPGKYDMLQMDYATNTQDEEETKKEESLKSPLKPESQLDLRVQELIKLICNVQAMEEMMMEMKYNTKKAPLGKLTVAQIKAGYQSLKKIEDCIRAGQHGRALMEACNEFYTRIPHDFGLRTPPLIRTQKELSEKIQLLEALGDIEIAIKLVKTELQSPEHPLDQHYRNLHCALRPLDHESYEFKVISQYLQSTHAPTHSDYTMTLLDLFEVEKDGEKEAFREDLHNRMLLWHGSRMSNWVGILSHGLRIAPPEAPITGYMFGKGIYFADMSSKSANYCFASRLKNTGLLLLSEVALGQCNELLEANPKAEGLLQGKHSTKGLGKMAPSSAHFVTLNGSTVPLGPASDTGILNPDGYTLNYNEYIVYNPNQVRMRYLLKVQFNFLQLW

C#Cc1cc(CN2CCN(c3ccc(C(=O)NC)nc3F)CC2)cc2[nH]c(=O)c(C)nc12 [Example 20, 5-(4-((8-ethynyl-2-methyl-3-oxo-3,4-dihydroquinoxalin-6-yl)methyl)piperazin-1-yl)-6-fluoro-N-methylpicolinamide] gave an IC50 [1] of 68.9 nM, an IC50 [2] of 2.4 nM and an IC50 [3] of 3.3 nM. The IC50 [4] was 0.6 nM and the “Selectivity PARP2/PARP1” value [4] was 124.8.
For CC#Cc1cc(CN2CCN(c3ccc(C(=O)NC)nc3F)CC2)c(F)c2[nH]c(=O)c(C)nc12 [Example 21, 6-fluoro-5-(4-((5-fluoro-2-methyl-3-oxo-8-(prop-1-yn-1-yl)-3,4-dihydroquinoxalin-6-yl)methyl)piperazin-1-yl)-N-methylpicolinamide], the IC50 [1] was > 10000 nM, the IC50 [2] was 22.2 nM and the IC50 [3] was 22.9 nM. For the same compound, the IC50 [4] was 6.7 nM and the “Selectivity PARP2/PARP1” value [4] was >1480.
For CNC(=O)c1ccc(N2CCN(Cc3cc(Oc4ccc(C#N)cc4)c4nc(C)c(=O)[nH]c4c3)CC2)c(F)n1 [Example 32, 5-(4-((8-(4-cyanophenoxy)-2-methyl-3-oxo-3,4-dihydroquinoxalin-6-yl)methyl)piperazin-1-yl)-6-fluoro-N-methylpicolinamide], the IC50 [1] was > 10000 nM, the IC50 [2] was 68.8 nM and the IC50 [3] was 40.1 nM. For the same compound, the IC50 [4] was 2.8 nM and the “Selectivity PARP2/PARP1” value [4] was >833.
For CNC(=O)c1ccc(N2CCN(Cc3cc(Nc4ccc(F)cc4)c4nc(C)c(=O)[nH]c4c3)CC2)c(F)n1 [Example 33, 6-fluoro-5-(4-((8-((4-fluorophenyl)amino)-2-methyl-3-oxo-3,4-dihydroquinoxalin-6-yl)methyl)piperazin-1-yl)-N-methylpicolinamide], the IC50 [1] was 234 nM, the IC50 [2] was 9.3 nM and the IC50 [3] was 4.1 nM. The IC50 [4] was 1.2 nM and the “Selectivity PARP2/PARP1” value [4] was 188.8.
CC#Cc1cc(CN2CC=C(c3ccc(C(=O)NC4CC4)nc3F)CC2)cc2[nH]c(=O)c(C)nc12 [Example 39, N-cyclopropyl-2-fluoro-1'-((2-methyl-3-oxo-8-(prop-1-yn-1-yl)-3,4-dihydroquinoxalin-6-yl)methyl)-1',2',3',6'-tetrahydro-[3,4'-bipyridine]-6-carboxamide] was tested, and the IC50 [1] was 599 nM, the IC50 [2] was 7.7 nM and the IC50 [3] was < 0.038 nM. For the same compound, the IC50 [4] was 2.9 nM and the “Selectivity PARP2/PARP1” value [4] was 206.8.
Work on CC#Cc1cc(CN2CCN(c3ccc(C#N)cn3)CC2)cc2[nH]c(=O)c(C)nc12 [Example 43, 6-(4-((2-methyl-3-oxo-8-(prop-1-yn-1-yl)-3,4-dihydroquinoxalin-6-yl)methyl)piperazin-1-yl)nicotinonitrile] yielded an IC50 [1] of 583 nM, an IC50 [2] of 27 nM and an IC50 [3] of 8 nM. The IC50 [4] was 1.5 nM and the “Selectivity PARP2/PARP1” value [4] was 398.1.
CNC(=O)c1ccc(C2=CCN(Cc3cc(OC(F)F)c4nc(C)c(=O)[nH]c4c3)CC2)cn1 [Example 44, 1'-((8-(difluoromethoxy)-2-methyl-3-oxo-3,4-dihydroquinoxalin-6-yl)methyl)-N-methyl-1',2',3',6'-tetrahydro-[3,4'-bipyridine]-6-carboxamide] gave an IC50 [1] of 148 nM, an IC50 [2] of 9.3 nM and an IC50 [3] of 1.3 nM. For the same compound, the IC50 [4] was 0.8 nM and the “Selectivity PARP2/PARP1” value [4] was 184.1.
In the case of CC#Cc1cc(CN2CCN(c3ccc(C(=O)NC)nc3C)CC2)c(F)c2[nH]c(=O)c(C)nc12 [Example 45, 5-(4-((5-fluoro-2-methyl-3-oxo-8-(prop-1-yn-1-yl)-3,4-dihydroquinoxalin-6-yl)methyl)piperazin-1-yl)-N,6-dimethylpicolinamide], the IC50 [1] is reported as > 10000 nM, the IC50 [2] is reported as 12 nM and the IC50 [3] is reported as 11.1 nM. The IC50 [4] was 7.7 nM and the “Selectivity PARP2/PARP1” value [4] was >1290.7.
For CC#Cc1cc(CN2CCN(c3ccc(C(=O)NC4CC4)nc3F)CC2)c(F)c2[nH]c(=O)c(C)nc12 [Example 47, N-cyclopropyl-6-fluoro-5-(4-((5-fluoro-2-methyl-3-oxo-8-(prop-1-yn-1-yl)-3,4-dihydroquinoxalin-6-yl)methyl)piperazin-1-yl)picolinamide], the IC50 [1] was > 10000 nM, the IC50 [2] was 18.6 nM and the IC50 [3] was 0.6 nM. The IC50 [4] was 6.9 nM and the “Selectivity PARP2/PARP1” value [4] was >1456.3.
For CNC(=O)c1ccc(N2CCN(Cc3cc(OC(F)F)c4nc(C)c(=O)[nH]c4c3)CC2)cn1 [Example 49, 5-(4-((8-(difluoromethoxy)-2-methyl-3-oxo-3,4-dihydroquinoxalin-6-yl)methyl)piperazin-1-yl)-N-methylpicolinamide], the IC50 [1] was 54 nM, the IC50 [2] was 12.9 nM and the IC50 [3] was 9.1 nM. The IC50 [4] was 3.2 nM and the “Selectivity PARP2/PARP1” value [4] was 17.0.
CNC(=O)c1ccc(N2CCN(Cc3cc(OC(F)F)c4nc(C5CC5)c(=O)[nH]c4c3)CC2)c(F)n1 [Example 54, 5-(4-((2-cyclopropyl-8-(difluoromethoxy)-3-oxo-3,4-dihydroquinoxalin-6-yl)methyl)piperazin-1-yl)-6-fluoro-N-methylpicolinamide] showed an IC50 [1] of 203 nM, an IC50 [2] of 18.4 nM and an IC50 [3] of 28.7 nM. The IC50 [4] was 7.6 nM and the “Selectivity PARP2/PARP1” value [4] was 26.7.
In the case of CNC(=O)c1ccc(N2CCN(Cc3cc(OC(F)F)c4cc(C)c(=O)[nH]c4c3)CC2)c(F)n1 [Example 55, 5-(4-((5-(difluoromethoxy)-3-methyl-2-oxo-1,2-dihydroquinolin-7-yl)methyl)piperazin-1-yl)-6-fluoro-N-methylpicolinamide], the IC50 [1] is reported as 14.3 nM, the IC50 [2] is reported as 3.9 nM and the IC50 [3] is reported as < 0.038 nM. The IC50 [4] was 1.9 nM and the “Selectivity PARP2/PARP1” value [4] was 7.6.
Compound Cc1nc2c(OC(F)F)cc(CN3CCN(c4ccc(C(=O)N[C@H]5C[C@H]5F)nc4F)CC3)cc2[nH]c1=O [Example 57, 5-(4-((8-(difluoromethoxy)-2-methyl-3-oxo-3,4-dihydroquinoxalin-6-yl)methyl)piperazin-1-yl)-6-fluoro-N-((1S,2R)-2-fluorocyclopropyl)picolinamide] has an IC50 [1] of 79.5 nM, an IC50 [2] of 2.9 nM and an IC50 [3] of 1.7 nM. The IC50 [4] was 1.7 nM and the “Selectivity PARP2/PARP1” value [4] was 47.3.
For CNC(=O)c1ccc2c(n1)COC[C@H]1CN(Cc3cc(OC(F)F)c4nc(C)c(=O)[nH]c4c3)CCN21 [Example 59, (R)-3-((8-(difluoromethoxy)-2-methyl-3-oxo-3,4-dihydroquinoxalin-6-yl)methyl)-N-methyl-2,3,4,4a,5,7-hexahydro-1H-pyrazino[2,1-c]pyrido[3,2-e][1,4]oxazepine-9-carboxamide], the IC50 [1] was 1220 nM, the IC50 [2] was 8 nM and the IC50 [3] was 26.3 nM. The IC50 [4] was 1.9 nM and the “Selectivity PARP2/PARP1” value [4] was 650.4.
For CNC(=O)c1ccc(N2CCN(Cc3cc(OC(F)F)c4nc(C)c(=O)[nH]c4c3F)CC2)c(C)n1 [Example 60, 5-(4-((8-(difluoromethoxy)-5-fluoro-2-methyl-3-oxo-3,4-dihydroquinoxalin-6-yl)methyl)piperazin-1-yl)-N,6-dimethylpicolinamide], the IC50 [1] was 5820 nM, the IC50 [2] was 8.58 nM and the IC50 [3] was 31.2 nM. The IC50 [4] was 2.9 nM and the “Selectivity PARP2/PARP1” value [4] was 2030.7.
CC#Cc1cc(CN2CCN3c4ccc(C(=O)NC)nc4COC[C@H]3C2)cc2[nH]c(=O)c(C)nc12 [Example 63, (R)-N-methyl-3-((2-methyl-3-oxo-8-(prop-1-yn-1-yl)-3,4-dihydroquinoxalin-6-yl)methyl)-2,3,4,4a,5,7-hexahydro-1H-pyrazino[2,1-c]pyrido[3,2-e][1,4]oxazepine-9-carboxamide] showed an IC50 [1] of 1280 nM, an IC50 [2] of 16.1 nM and an IC50 [3] of 6.2 nM. The IC50 [4] was 3.2 nM and the “Selectivity PARP2/PARP1” value [4] was 398.8.
In the case of CNC(=O)c1ccc(N2CCN(Cc3cc(OC4CCCC4)c4nc(C)c(=O)[nH]c4c3)CC2)c(F)n1 [Example 71, 5-(4-((8-(cyclopentoxy)-2-methyl-3-oxo-3,4-dihydroquinoxalin-6-yl)methyl)piperazin-1-yl)-6-fluoro-N-methylpyridine amide], the IC50 [1] is reported as 1290 nM, the IC50 [2] is reported as 12.3 nM and the IC50 [3] is reported as 9.3 nM. The IC50 [4] was 1.5 nM and the “Selectivity PARP2/PARP1” value [4] was 873.7.
